{"source": "patent US20030087799A1", "about": "“Modulation” (priority 2001, published 2003)", "key": {"GABAA receptor": {"test_system": "GABAA receptor", "test": "GABAA receptor mediated chloride currents evoked on cultured neurones", "assay_type": "cell-based"}, "[1]": {"test_system": "K-ATP channels in DA neurones", "test": "K-ATP channel mediated response of DA neurones to mitochondrial inhibitors", "assay_type": "cell-based, mouse", "conditions": "read-out: EC50 of K-ATP channel sensitivity"}, "[2]": {"test_system": "Ih channels in DA SN neurones", "test": "Pacemaker frequency of DA SN neurones under selective Ih inhibition", "assay_type": "cell-based", "conditions": "30 μM ZD7288"}, "[3]": {"test_system": "SK mediated AHP currents (I-AHP) in dopaminergic neurons", "test": "cells", "assay_type": "cell-based, mouse", "conditions": "for IC50: read-out: IC50 of I-AHP inhibition (Hill function)"}, "globus pallidus neurones": {"test_system": "globus pallidus neurones", "test": "Electrical activity of globus pallidus neurones in brain slices", "assay_type": "cell-based, mouse"}, "[4]": {"test_system": "T-type calcium channels (low voltage-activated calcium currents)", "assay_type": "cell-based, mouse", "conditions": "read-out: IC50 of I-LVA inhibition (Hill function)"}, "[5]": {"test_system": "dopaminergic midbrain neurons", "assay_type": "cell-based, mouse"}, "dopaminergic neurons [6]": {"test_system": "dopaminergic neurons", "assay_type": "cell-based, mouse"}, "dopaminergic neurons [7]": {"test_system": "dopaminergic neurons"}}, "note": "Read-outs that look alike come from different tables or passages of the source.", "data": [{"molecule": "[H]/N=C(/N)NCC(=O)O", "note": "[GAA, guanidinoacetate]", "values": [{"measurement": "EC50", "setting": "GABAA receptor", "result": 164, "unit": "µM"}]}, {"molecule": "C[n+]1ccc(-c2ccccc2)cc1", "note": "[MPP^+]", "values": [{"measurement": "EC50", "setting": "[1]; MPP+", "result": "~2", "unit": "µM"}]}, {"molecule": "CCN(c1ccccc1)c1cc(=NC)n(C)c(C)n1.Cl", "note": "[ZD7288]", "values": [{"measurement": "decrease of pacemaker frequency", "setting": "[2]", "result": "about 50%"}]}, {"molecule": "[Co+2]", "note": "[cobalt]", "values": [{"measurement": "I-AHP residual current (cobalt block)", "setting": "[3]; 1 mM cobalt, n=29", "result": "29±4", "unit": "%"}]}, {"molecule": "CN(CC(=O)O)C(=N)N", "note": "[creatine]", "values": [{"measurement": "effect on neuronal activity", "setting": "globus pallidus neurones; millimolar concentrations", "result": "no effect"}]}, {"molecule": "COCC(=O)O[C@]1(CCN(C)CCCc2nc3ccccc3[nH]2)CCc2cc(F)ccc2[C@@H]1C(C)C", "note": "[mibefradil, Mibefradil]", "values": [{"measurement": "IC50", "setting": "[3]; Mus musculus, Neuron, mean dose-response, recording potential −60 mV", "result": 5.9, "unit": "µM"}, {"measurement": "inhibition of cobalt-sensitive I-AHP", "setting": "[3]; mibefradil, concentration not given, normalized to mean value of cobalt block, n=6", "result": "94±10", "unit": "%"}, {"measurement": "IC50", "setting": "[4]; depolarizations to −50 mV from holding potential −100 mV", "result": 4.6, "unit": "µM"}]}, {"molecule": "[Ni+2]", "note": "[nickel]", "values": [{"measurement": "inhibition of cobalt-sensitive I-AHP", "setting": "[3]", "result": "85±9", "unit": "%"}, {"measurement": "IC50", "setting": "[3]", "result": 33.8, "unit": "µM"}, {"measurement": "bursting value (action potentials in bursts / total)", "setting": "[5]", "result": "12±6", "unit": "%"}, {"measurement": "IC50", "setting": "[4]", "result": 33.9, "unit": "µM"}, {"measurement": "coefficient of variation (CV) of interspike intervals, representative recording", "setting": "dopaminergic neurons [6]", "result": 38, "unit": "%"}, {"measurement": "mean CV of interspike intervals", "setting": "dopaminergic neurons [6]", "result": "27±5", "unit": "%"}, {"measurement": "fold reduction of AHPs with successive action potentials (cumulative inactivation)", "setting": "dopaminergic neurons [7]", "result": "1.1±0.1"}]}, {"molecule": "C=C(C)[C@H]1Cc2c(ccc3c2O[C@@H]2COc4cc(OC)c(OC)cc4[C@@H]2C3=O)O1", "note": "[rotenone]", "values": [{"measurement": "EC50", "setting": "[1]; rotenone", "result": "~0.015", "unit": "µM"}]}, {"molecule": "picrotoxin", "values": [{"measurement": "effect on GAA-induced effects", "setting": "globus pallidus neurones; GABAA receptor antagonists", "result": "blocked"}]}]}
